Test: molar heat capacity at constant pressure
Conditions: 101.33 kPa, Small (less than 1 g) adiabatic calorimetry

CC(C)(C)c1ccc(Oc2ccc([N+](=O)[O-])cc2)cc1 [1-(tert-butyl)-4-(4-nitrophenoxy)benzene]
Conditions	molar heat capacity at constant pressure [J/K/mol]
5 K, Crystal	1.355
7.47 K, Crystal	4.099
7.73 K, Crystal	4.357
7.99 K, Crystal	4.806
8.25 K, Crystal	4.93
8.5 K, Crystal	5.379
8.76 K, Crystal	5.679
9 K, Crystal	6.111
9.25 K, Crystal	6.543
9.5 K, Crystal	6.718
9.74 K, Crystal	6.934
9.98 K, Crystal	7.616
10 K, Crystal	7.483
10.29 K, Crystal	7.94
10.67 K, Crystal	8.647
11.05 K, Crystal	9.237
11.43 K, Crystal	9.903
11.82 K, Crystal	10.72
12.19 K, Crystal	11.55
12.56 K, Crystal	12.15
12.94 K, Crystal	12.7
13.31 K, Crystal	13.57
13.67 K, Crystal	14.33
14.04 K, Crystal	15.21
14.41 K, Crystal	15.49
14.78 K, Crystal	16.59
15 K, Crystal	16.88
15.14 K, Crystal	17.38
15.51 K, Crystal	17.73
15.87 K, Crystal	18.62
16.23 K, Crystal	19.3
16.59 K, Crystal	20.01
16.95 K, Crystal	20.59
17.31 K, Crystal	21.22
17.67 K, Crystal	21.96
18.02 K, Crystal	23.17
18.38 K, Crystal	23.47
18.74 K, Crystal	23.92
19.09 K, Crystal	24.86
19.44 K, Crystal	25.53
19.8 K, Crystal	26.14
20 K, Crystal	26.69
20.15 K, Crystal	27.16
20.82 K, Crystal	28.34
21.6 K, Crystal	29.77
22.37 K, Crystal	31.32
23.15 K, Crystal	32.68
23.93 K, Crystal	34.2
24.7 K, Crystal	35.79
25 K, Crystal	36.33
25.47 K, Crystal	37.61
26.25 K, Crystal	38.45
27.02 K, Crystal	40.22
27.78 K, Crystal	41.32
28.55 K, Crystal	43.04
29.31 K, Crystal	44.42
30 K, Crystal	45.73
30.07 K, Crystal	45.76
30.84 K, Crystal	47.58
31.6 K, Crystal	48.75
32.37 K, Crystal	49.72
33.14 K, Crystal	51.08
33.9 K, Crystal	52.67
34.66 K, Crystal	54.05
35 K, Crystal	54.54
35.42 K, Crystal	55.3
36.18 K, Crystal	57.11
36.94 K, Crystal	57.85
37.7 K, Crystal	58.97
38.45 K, Crystal	60.6
39.21 K, Crystal	61.49
39.97 K, Crystal	62.88
40 K, Crystal	63.11
40.73 K, Crystal	64.39
41.49 K, Crystal	65.82
42.25 K, Crystal	66.47
43.01 K, Crystal	68.18
43.76 K, Crystal	69.21
44.52 K, Crystal	70.63
45 K, Crystal	71.17
45.29 K, Crystal	71.91
46.05 K, Crystal	72.64
46.81 K, Crystal	73.61
47.56 K, Crystal	75.02
48.32 K, Crystal	75.74
49.08 K, Crystal	77.04
49.84 K, Crystal	77.52
50 K, Crystal	77.91
50.59 K, Crystal	79.05
51.35 K, Crystal	79.22
52.11 K, Crystal	79.8
52.86 K, Crystal	81.65
53.62 K, Crystal	82.43
54.38 K, Crystal	83.39
55.13 K, Crystal	84.31
55.89 K, Crystal	84.81
56.64 K, Crystal	85.14
57.4 K, Crystal	86.3
58.15 K, Crystal	87.8
58.9 K, Crystal	88.13
59.65 K, Crystal	89.46
60 K, Crystal	89.55
60.41 K, Crystal	89.8
61.16 K, Crystal	91.13
61.91 K, Crystal	92.37
62.66 K, Crystal	92.46
63.41 K, Crystal	94.04
64.16 K, Crystal	94.87
64.91 K, Crystal	94.78
65.66 K, Crystal	96.12
66.41 K, Crystal	96.12
67.16 K, Crystal	97.94
67.91 K, Crystal	97.94
68.65 K, Crystal	99.44
69.4 K, Crystal	100.27
70 K, Crystal	101.19
70.15 K, Crystal	102.77
71.05 K, Crystal	102.93
72.11 K, Crystal	103.85
73.17 K, Crystal	104.93
74.23 K, Crystal	106.18
75.29 K, Crystal	108.42
76.35 K, Crystal	108.75
77.41 K, Crystal	110.08
78.47 K, Crystal	112
79.3 K, Crystal	112.16
79.53 K, Crystal	113.49
79.87 K, Glass	115.9
80 K, Crystal	113.16
80.1 K, Crystal	112.83
80.58 K, Crystal	114.66
80.67 K, Glass	116.65
80.9 K, Crystal	113.82
81.47 K, Glass	117.4
81.64 K, Crystal	116.15
81.71 K, Crystal	114.66
82.27 K, Glass	118.31
82.51 K, Crystal	115.4
82.7 K, Crystal	116.82
83.08 K, Glass	119.23
83.31 K, Crystal	116.49
83.75 K, Crystal	117.48
83.88 K, Glass	120.06
84.11 K, Crystal	117.32
84.68 K, Glass	120.98
84.92 K, Crystal	118.07
85.48 K, Glass	121.97
85.72 K, Crystal	119.06
86.29 K, Glass	122.89
86.52 K, Crystal	119.98
87.09 K, Glass	123.8
87.32 K, Crystal	120.81
87.89 K, Glass	124.55
